Measurements reported in patent US9156811B2 (priority 2008, dated 2015).
Where two headings read alike, the source gives them in different places.

Legend:
human NMT-1 = human NMT-1 (Homo sapiens (Human), UniProt P30419); test: NMT enzyme inhibition scintillation proximity assay, human NMT-1; format: biochemical
[1] = target: T. brucei N-myristoyl transferase (Trypanosoma brucei brucei (strain 927/4 GUTat10.1), UniProt Q388H8); test: biochemical; format: biochemical
[2] = test system: Trypanosome (T. brucei brucei); test: In-vitro antitrypanosomal efficacy assay (cell growth, resazurin); format: cell-based
[3] = CNS penetration: drug concentration in blood and brain after i.v. dosing; format: in vivo; details: iv, female NMRI mouse, t = 5 min; for Kp at 5 min: brain / whole blood; for concentration at 5 min: average of three animals
[4] = target: L. major N-myristoyl transferase (Leishmania major, UniProt Q4Q5S8); format: biochemical; details: Leishmania major NMT; value in parentheses; read-out: IC50 (μM) NMT Enzyme (LmNMT)
[5] = value with no enzyme tag in the cell, taken as T. brucei NMT, read-out: IC50 (μM) NMT Enzyme
[6] = Human NMT-1, value in parentheses, read-out: IC50 (μM) NMT Enzyme (HuNMT-1)
[7] = T. brucei NMT, value without parentheses, read-out: IC50 (μM) NMT Enzyme (T. brucei NMT)
[8] = T. brucei brucei, blood stream form, variant 221
[9] = read-out: IC50 (μM) NMT Enzyme (T. brucei NMT)

human NMT-1, sequence (P30419 whole entry): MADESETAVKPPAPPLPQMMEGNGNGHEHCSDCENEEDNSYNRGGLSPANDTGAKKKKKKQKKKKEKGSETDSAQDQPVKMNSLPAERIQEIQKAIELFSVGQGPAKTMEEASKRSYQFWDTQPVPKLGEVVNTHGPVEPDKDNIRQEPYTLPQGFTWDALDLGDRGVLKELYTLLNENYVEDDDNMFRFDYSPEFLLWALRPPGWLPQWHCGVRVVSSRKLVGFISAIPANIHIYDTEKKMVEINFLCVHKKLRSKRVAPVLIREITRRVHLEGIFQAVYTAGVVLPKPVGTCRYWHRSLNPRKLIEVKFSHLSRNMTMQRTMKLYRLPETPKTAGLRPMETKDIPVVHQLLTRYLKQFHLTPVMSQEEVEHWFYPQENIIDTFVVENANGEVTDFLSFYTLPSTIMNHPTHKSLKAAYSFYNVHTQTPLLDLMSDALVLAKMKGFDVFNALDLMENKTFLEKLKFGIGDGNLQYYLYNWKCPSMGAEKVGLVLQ
L. major N-myristoyl transferase, sequence (Q4Q5S8 1-421): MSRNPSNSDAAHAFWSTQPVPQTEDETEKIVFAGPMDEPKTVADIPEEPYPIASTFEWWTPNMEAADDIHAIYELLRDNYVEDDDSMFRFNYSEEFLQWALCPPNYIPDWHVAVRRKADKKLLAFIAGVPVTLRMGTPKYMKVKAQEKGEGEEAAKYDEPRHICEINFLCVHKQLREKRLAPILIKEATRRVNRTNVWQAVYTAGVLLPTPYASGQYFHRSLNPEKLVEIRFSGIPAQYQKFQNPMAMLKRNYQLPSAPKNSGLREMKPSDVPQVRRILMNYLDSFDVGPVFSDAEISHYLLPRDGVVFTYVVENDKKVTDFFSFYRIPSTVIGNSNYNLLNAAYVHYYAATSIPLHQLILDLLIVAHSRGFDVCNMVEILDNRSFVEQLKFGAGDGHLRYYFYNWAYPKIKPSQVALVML
T. brucei N-myristoyl transferase, sequence (Q388H8 1-446): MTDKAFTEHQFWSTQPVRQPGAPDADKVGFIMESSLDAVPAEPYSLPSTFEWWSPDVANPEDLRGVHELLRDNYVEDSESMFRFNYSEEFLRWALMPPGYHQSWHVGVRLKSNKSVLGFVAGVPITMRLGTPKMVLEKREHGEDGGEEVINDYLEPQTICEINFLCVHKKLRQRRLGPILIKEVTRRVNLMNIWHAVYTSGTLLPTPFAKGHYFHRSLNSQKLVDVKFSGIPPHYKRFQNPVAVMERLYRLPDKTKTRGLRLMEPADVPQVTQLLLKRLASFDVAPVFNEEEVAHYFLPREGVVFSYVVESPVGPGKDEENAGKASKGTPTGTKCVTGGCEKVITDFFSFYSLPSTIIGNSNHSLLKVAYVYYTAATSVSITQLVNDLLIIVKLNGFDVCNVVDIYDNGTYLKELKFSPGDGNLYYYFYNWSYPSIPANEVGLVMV

SMILES	IC50 (human NMT-1; [6])	IC50 [1, 7]	IC50 [4]	ED50 (μM) T. brucei [2, 8]	further results
CCN(C)Cc1cccc(-c2ccc([S+](=O)([O-])Nc3c(CC(C)C)nn(C)c3C)cc2)c1 [DDD99741]					IC50 (human NMT-1; HuNMT-1): 0.021 µM; IC50 [1, 5]: 0.005 µM; ED50 (μM) T. brucei ([2]; T. brucei cell growth): 0.047 µM
Cc1c(N[S+](=O)([O-])c2ccc(-c3cccc(CN(C)C)c3)cc2)c(CC(C)C)nn1C [DDD99742]					ED50 (μM) T. brucei ([2]; T. brucei cell growth): 0.019 µM; Kp at 5 min ([3]; single i.v. dose 2.0 mg/kg): 0.66; concentration at 5 min ([3]; brain, single i.v. dose 2.0 mg/kg, read-out: Conc (ng/ml in brain)): 422 ng/mL; concentration at 5 min ([3]; whole blood, single i.v. dose 2.0 mg/kg, read-out: Conc (ng/ml in blood)): 642 ng/mL
Cc1nn(C)c(C)c1N(C)[S+](=O)([O-])c1ccc(CCCCN(C)C)cc1 [DDD99745]					IC50 (human NMT-1; HuNMT-1): > 10 µM; IC50 [1, 5]: 2.1 µM; ED50 (μM) T. brucei ([2]; T. brucei cell growth): >1 µM
Cc1nn(C)c(C)c1N(C)[S+](=O)([O-])c1ccc(CCCCn2ccnc2)cc1 [DDD99746]					IC50 (human NMT-1; HuNMT-1): > 10 µM; IC50 [1, 5]: 2 µM; ED50 (μM) T. brucei ([2]; T. brucei cell growth): >1 µM
Cc1nn(C)c(C)c1N(C)[S+](=O)([O-])c1ccc(CCCN(C)C)cc1 [DDD99749]					IC50 (human NMT-1; HuNMT-1): > 1 µM; IC50 [1, 5]: 0.45 µM; ED50 (μM) T. brucei ([2]; T. brucei cell growth): >1 µM
Cc1nn(C)c(C)c1N(C)[S+](=O)([O-])c1ccc(CCCn2ccnc2)cc1 [DDD99750]					IC50 (human NMT-1; HuNMT-1): > 1 µM; IC50 [1, 5]: > 1 µM; ED50 (μM) T. brucei ([2]; T. brucei cell growth): >1 µM
Cc1c(N[S+](=O)([O-])c2ccc(-c3cccc(CN4CCC(N(C)C)C4)c3)cc2)c(CC(C)C)nn1C (centres unmarked) [DDD99821]					IC50 (human NMT-1; HuNMT-1): 3.8 µM; IC50 [1, 5]: 0.16 µM; ED50 (μM) T. brucei ([2]; T. brucei cell growth): 0.59 µM
CCc1nn(C)c(CC)c1NS(=O)(=O)c1c(Cl)cc(Br)cc1Cl [DDD99835]	> 1 µM	0.38 µM		>1 µM	
Cc1c(NS(=O)(=O)c2ccc(CCCC3CCN(C)CC3)cc2)c(CC(C)C)nn1C [DDD99837, N-(3-isobutyl-1,5-dimethyl-1H-pyrazol-4-yl)-4-(3-(1-methylpiperidin-4-yl)propyl)benzenesulfonamide]				0.036 µM	Kp at 5 min ([3]; single i.v. dose 3.0 mg/kg): 0.26; concentration at 5 min ([3]; brain, single i.v. dose 3.0 mg/kg, read-out: Conc (ng/ml in brain)): 99 ng/mL; concentration at 5 min ([3]; whole blood, single i.v. dose 3.0 mg/kg, read-out: Conc (ng/ml in blood)): 388 ng/mL
Cc1c(N[S+](=O)([O-])c2ccc(-c3cccc(CNCCc4ccccc4)c3)cc2)c(CC(C)C)nn1C [DDD100139]	2.3 µM	1.4 µM		>1 µM	
Cc1c(N[S+](=O)([O-])c2ccc(-c3cccc(CNC4CCCC4)c3)cc2)c(CC(C)C)nn1C [DDD100146]	2.3 µM	0.36 µM		>1 µM	
Cc1nn(C)c(C)c1N(CC(F)F)[S+](=O)([O-])c1c(Cl)cc(Br)cc1Cl [DDD100147]	> 10 µM	3.2 µM		>1 µM	
Cc1nn(C)c(C)c1N(CC(F)(F)F)[S+](=O)([O-])C1=C(Cl)C=C(CCCN2CCCNCC2)CC1Cl (centres unmarked) [DDD100148]	0.21 µM	0.008 µM		0.018 µM	
Cc1nn(C)c(C)c1N(CC(F)(F)F)[S+](=O)([O-])c1c(Cl)cc(CCCN2CCN(C)CC2)cc1Cl [DDD100149]	2.4 µM	0.014 µM		0.132 µM	
Cc1c(N[S+](=O)([O-])c2ccc(-c3cccc(CNCc4ccccc4)c3)cc2)c(CC(C)C)nn1C [DDD100150]	4 µM	1.3 µM		>1 µM	
Cc1nn(C)c(C)c1N(C(F)F)[S+](=O)([O-])c1c(Cl)cc(CCCCCCn2ccnc2)cc1Cl [DDD100156]	1.1 µM		0.048 µM	0.148 µM	IC50 [1, 9]: 0.016 µM
Cc1nn(C)c(C)c1N(CC(F)F)[S+](=O)([O-])c1c(Cl)cc(CCCN2CCN(C)CC2)cc1Cl [DDD100163]	1.7 µM	0.014 µM		0.125 µM	
Cc1nn(C)c(C)c1N(C(F)F)[S+](=O)([O-])c1c(Cl)cc(CCCCCCn2ccnc2C(C)C)cc1Cl [DDD100791]	2.1 µM		0.044 µM	0.344 µM	IC50 [1, 9]: 0.21 µM
Cc1c(N[S+](=O)([O-])c2ccc(-c3cccc(CNCc4cccnc4)c3)cc2)c(CC(C)C)nn1C [DDD100793]		0.026 µM	1.4 µM	0.54 µM	
Cc1c(N[S+](=O)([O-])c2ccc(-c3ccccc3CN(C)C)cc2)c(CC(C)C)nn1C [DDD100862]		0.358 µM	> 1 µM	>1 µM	
Cc1c(N[S+](=O)([O-])c2ccc(Br)cc2)c(CCc2ccccc2)nn1C [DDD100880]	> 1 µM	> 1 µM	> 1 µM	21.4 µM	
Cc1c(N[S+](=O)([O-])c2ccc(CCCC3CCN(C)CC3)cc2)c(Cc2ccccc2)nn1C [DDD100881]		0.02 µM	0.778 µM	0.234 µM	
Cc1c(N[S+](=O)([O-])c2ccc(-c3cccc(CNCCc4ccccn4)c3)cc2)c(CC(C)C)nn1C [DDD100882]		0.305 µM	> 1 µM	2.45 µM	

Second part, led by results:

IC50 (human NMT-1; [6])	IC50 [1, 7]	IC50 [4]	SMILES	ED50 (μM) T. brucei [2, 8]	further results
> 1 µM	0.86 µM	> 1 µM	Cc1c(N[S+](=O)([O-])c2ccc(-c3cccc(CN(C)Cc4cccnc4)c3)cc2)c(CC(C)C)nn1C [DDD100796]	>1 µM	
	0.02 µM	0.47 µM	Cc1c(N[S+](=O)([O-])c2ccc(-c3cccc(CNC(C)C)c3)cc2)c(CC(C)C)nn1C [DDD100799]	0.293 µM	
	0.004 µM	0.011 µM	Cc1c(N[S+](=O)([O-])c2ccc(-c3ccc4c(c3)CNCC4)cc2)c(CC(C)C)nn1C [DDD100801]	0.014 µM	
	0.006 µM	0.077 µM	Cc1c(N[S+](=O)([O-])c2ccc(-c3cccc(CN4CCCC4C)c3)cc2)c(CC(C)C)nn1C (centres unmarked) [DDD100804]	0.035 µM	
	0.004 µM	0.224 µM	Cc1c(N[S+](=O)([O-])c2ccc(-c3ccc(F)c(CN4CCCC4)c3)cc2)c(CC(C)C)nn1C [DDD100806]	0.033 µM	
	0.006 µM	0.091 µM	Cc1c(N[S+](=O)([O-])c2ccc(-c3cccc(C(C)(C)N(C)C)c3)cc2)c(CC(C)C)nn1C [DDD100863]	0.015 µM	
	0.097 µM	1.9 µM	Cc1c(N[S+](=O)([O-])c2ccc(-c3ccc(CN(C)C)cc3)cc2)c(CC(C)C)nn1C [DDD100865]	7.3 µM	
	0.01 µM	0.054 µM	CCCCc1nn(C)c(C)c1N[S+](=O)([O-])c1ccc(-c2cccc(CN(C)C)c2)cc1 [DDD100866]	3.2 µM	
	0.006 µM	0.074 µM	CCCc1nn(C)c(C)c1N[S+](=O)([O-])c1ccc(-c2cccc(CN(C)C)c2)cc1 [DDD100867]	0.048 µM	
	0.004 µM	0.019 µM	Cc1c(N[S+](=O)([O-])c2ccc(-c3cccc(CNCCc4cccnc4)c3)cc2)c(CC(C)C)nn1C [DDD100869]	5.7 µM	
> 1 µM	7.95 µM	> 1 µM	CCCc1nn(C)c(C)c1N[S+](=O)([O-])c1ccc(Br)cc1 [DDD100871]	51.0 µM	
> 1 µM	13.8 µM	> 1 µM	Cc1nn(C)c(C)c1N[S+](=O)([O-])c1ccc(-c2cccc(-c3cn(C)cn3)c2)cc1 [DDD100873]	>1 µM	
> 1 µM	0.74 µM	> 1 µM	Cc1nn(C)c(C)c1N[S+](=O)([O-])c1ccc(-c2cccc(-c3nccn3C)c2)cc1 [DDD100874]	>1 µM	
> 1 µM	2.68 µM	> 1 µM	CCCCc1nn(C)c(C)c1N[S+](=O)([O-])c1ccc(Br)cc1 [DDD100875]	20.5 µM	
	0.006 µM	0.059 µM	Cc1c(N[S+](=O)([O-])c2ccc(-c3ccc4c(c3)CN(C)CC4)cc2)c(CC(C)C)nn1C [DDD100876]	0.014 µM	
2.4 µM	0.262 µM	0.906 µM	Cc1nn(C)c(C)c1N[S+](=O)([O-])c1ccc(-c2cccc(-c3nccn3C)c2)cc1 [DDD100878]	>1 µM	
2.6 µM	0.803 µM	1.59 µM	Cc1nn(C)c(C)c1N[S+](=O)([O-])c1ccc(-c2cccc(-c3c[nH]cn3)c2)cc1 [DDD100879]	>1 µM	
> 1 µM	0.023 µM	0.672 µM	Cc1c(N[S+](=O)([O-])c2ccc(CCCCC3CCN(C)CC3)cc2)c(Cc2ccccc2)nn1C [DDD100883]	0.427 µM	
> 1 µM	1.08 µM	> 1 µM	Cc1nn(C)c(C)c1N[S+](=O)([O-])c1ccc(-c2cccc(-c3ncc[nH]3)c2)cc1 [DDD100884]	>1 µM	
	0.032 µM	0.211 µM	Cc1c(N[S+](=O)([O-])c2ccc(-c3cccc(CN(C)C)c3)cc2)c(CCc2ccccc2)nn1C [DDD100885]	9.72 µM	
